This is an account of results in article PMC6413339 (EBioMedicine, 2019).

One assay deals with phospho-FLT3. Put plainly: Western blot, MOLM-14 (ITD, D835Y) cells. The format is cell-based, human.
Assay [1] deals with AML cell lines (MV4–11, MOLM-14, MOLM-14 (ITD, D835Y), MOLM-14 (ITD, F691 L)). The experiment in a line: Cell cycle analysis (PI flow cytometry). The class given is cell-based, human. To be noted: 24 h and 48 h. The protocol: (§1) Cells seeded into T-25 flasks at a density of 8.0 × 10^4 cells/mL and incubated overnight at 37 °C with 5% CO2. Each treatment was performed in triplicates, with three flasks per treatment each with enough volume for both assays at the applicable time points. Following the overnight incubation, cells were treated with either DMSO or different concentrations of HSN431 (as indicated) in triplicates, mixed well and incubated. At each time point (24 and 48 h), aliquots of 1.5 mL of cells were collected from each flask and placed into labeled FACS tubes (for Annexin V apoptosis) or labeled 15 cc conical tubes (for cell cycle) and centrifuged at 300 × g for 5 min. Cells were washed twice with 1× PBS.
For cell cycle, cell pellets were resuspended in 0.5 mL PBS in 15 cc conical tubes and fixed with 4.5 mL of 70% ethanol. Fixed cells were stored at −20 °C until analysis with the Propidium Iodide (PI) Flow Cytometry Kit (cat. no. ab139418, Abcam, Cambridge, MA, USA). Samples were analyzed in duplicates on a FACSCanto II flow cytometer (BD Bioscience, San Jose, CA, USA) and cell cycle distribution was analyzed using the Watson algorithm analysis in FlowJo software (Flowjo, LLC, Ashland, OR).
Background: A flow cytometer gives signals particle by particle.

The next assay has as its target T1, Src (Homo sapiens, UniProt P12931).
T1 construct: purchased Invitrogen PR4336E
The experiment in a line: Cell-free kinase assay (Reaction Biology, ADP-Glo). The class given is biochemical. The protocol:
Cell-free kinase activity assays were performed at Reaction Biology Corporation. Briefly, kinases were incubated with substrates, 100 μM ATP and a 3-fold serial dilution of compounds starting at 1 μM. DMSO was used as control. […] Experiments were performed in duplicates. The concentrations of kinases and substrates used in the assays are indicated on Table S1. Kinase activity was quantified using the ADP-Glo™ Kinase Assay System (Promega, Madison, WI) following the manufacturer's recommendations.
(ADP-Glo turns the ADP formed in a reaction into a luminescent signal.)

In assay [2] the test system is AML cell lines (MV4–11, MOLM-14, MOLM-14 (ITD, D835Y), MOLM-14 (ITD, F691 L)). Put plainly: Annexin V apoptosis (flow cytometry). The class given is cell-based, human. To be noted: 24 h and 48 h; dose- and time-dependent. As to the method:
as §1
For Annexin V apoptosis, cell pellets were resuspended in 100 μL of 1× assay buffer and the binding of Annexin V and PI were measured by staining cells following the BD Pharmingen™ FITC Annexin V Apoptosis Detection Kit I (cat. no. 556547, BD Biosciences, San Jose, CA, USA) recommendations. Flow cytometry was performed on a a FACSCanto II flow cytometer (BD Bioscience, San Jose, CA, USA) and data analyzed using the FlowJo software (Flowjo, LLC, Ashland, OR).

In assay [3] the test system is MV4–11 cells. Put plainly: Trypan blue exclusion viable cell count. To be noted: 0.1–10 nM, 72 h. The format is cell-based, human. The protocol:
To determine the effect of HSN431 on actual leukemia cell counts, MV4–11 cells were seeded into 96 well plates as above and treated with either DMSO vehicle, or HSN431 at the following concentrations: 0.1 nM, 0.2 nM, 0.5 nM, 1 nM, 2 nM, 5 nM, and 10 nM. Cells were incubated for 72 h, and then counted using trypan blue exclusion on the Countess automated cell counter (Life Technologies, Carlsbad, CA). Cell counts were performed in triplicates, and the averages, standard deviations and t-test statistical analyses were graphed using GraphPad Prism software (GraphPad, La Jolla, CA).

Assay [4] concerns MOLM-14 (ITD, F691 L) cells. Put plainly: Antiproliferative activity (CellTitre-Blue, 72 h). The class given is cell-based, human. To be noted: 72 h incubation, triplicates; listed as 7 (HSN431); read-out: IC50 (mean ±SD, nM) MOLM-14 (ITD, F691 L). As to the method: (§2) Cells were seeded into 96-well tissue culture-treated plates at 2.0 × 10^4 cells/mL for up to 24 h. DMSO stock solutions of compounds were serially diluted first in DMSO and subsequently into RPMI before being added to the cell cultures in triplicates, with 10 μM being the highest tested concentration. The plates were incubated for 72 h as above. The CellTitre-Blue assay (Promega, Madison WI) was then added to the cultures and incubated a further 4 h before the fluorescence measured following the manufacturers recommendations. The fluorescence data from compounds were normalized to that DMSO and the resulting data fitted to a non-linear regression equation to obtain IC50 using GraphPad Prism 5.0 Software (La Jolla, CA, USA).

The next assay relates to MOLM-14 cells. The experiment in a line: Antiproliferative activity (CellTitre-Blue, 72 h). The format is cell-based, human. The following applies: Homo sapiens, MOLM-14; 72 h incubation, triplicates; read-out: IC50 (mean ±SD, nM) MOLM-14. The protocol: as §2
The test system of assay [5] is MOLM-14 (ITD, D835Y) cells. Put plainly: Antiproliferative activity (CellTitre-Blue, 72 h). To be noted: 72 h incubation, triplicates, read-out: IC50 (mean ±SD, nM) MOLM-14 (ITD, D835Y). The class given is cell-based, human. The protocol:
as §2

The subject of assay [6] is MV4–11 cells. Put plainly: Antiproliferative activity (CellTitre-Blue, 72 h). The format is cell-based, human. To be noted: Homo sapiens, MV4-11, 72 h, 72 h incubation, triplicates; read-out: IC50 (mean ±SD, nM) MV4–11. The protocol:
as §2

The target in a further assay is T2, FLT3 (Homo sapiens, UniProt P36888).
T2 construct: purchased Invitrogen PV3182
T2 sequence (P36888 564-993 limits assumed): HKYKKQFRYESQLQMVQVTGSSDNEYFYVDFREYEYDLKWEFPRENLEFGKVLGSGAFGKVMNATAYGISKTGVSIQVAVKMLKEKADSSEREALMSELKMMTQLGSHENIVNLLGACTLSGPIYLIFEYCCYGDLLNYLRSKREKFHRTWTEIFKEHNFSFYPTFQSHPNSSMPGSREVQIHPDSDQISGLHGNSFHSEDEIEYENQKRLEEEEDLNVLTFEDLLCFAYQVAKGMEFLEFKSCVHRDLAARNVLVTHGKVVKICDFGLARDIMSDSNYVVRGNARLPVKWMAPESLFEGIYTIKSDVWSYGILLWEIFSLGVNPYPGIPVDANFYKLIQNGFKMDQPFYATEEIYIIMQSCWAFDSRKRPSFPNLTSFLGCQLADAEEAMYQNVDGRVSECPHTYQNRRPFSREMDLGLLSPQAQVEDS
Put plainly: Cell-free kinase assay, single dose (Reaction Biology, ADP-Glo). The class given is biochemical. The following applies: inhibitor 500 nM; 100 μM ATP; average of duplicate. As to the method:
Cell-free kinase activity assays were performed at Reaction Biology Corporation. […] DMSO was used as control. […] Experiments were performed in duplicates. The concentrations of kinases and substrates used in the assays are indicated on Table S1. Kinase activity was quantified using the ADP-Glo™ Kinase Assay System (Promega, Madison, WI) following the manufacturer's recommendations.

Where two headings read alike, the source gives them in different places.

T1 sequence (P12931 whole entry): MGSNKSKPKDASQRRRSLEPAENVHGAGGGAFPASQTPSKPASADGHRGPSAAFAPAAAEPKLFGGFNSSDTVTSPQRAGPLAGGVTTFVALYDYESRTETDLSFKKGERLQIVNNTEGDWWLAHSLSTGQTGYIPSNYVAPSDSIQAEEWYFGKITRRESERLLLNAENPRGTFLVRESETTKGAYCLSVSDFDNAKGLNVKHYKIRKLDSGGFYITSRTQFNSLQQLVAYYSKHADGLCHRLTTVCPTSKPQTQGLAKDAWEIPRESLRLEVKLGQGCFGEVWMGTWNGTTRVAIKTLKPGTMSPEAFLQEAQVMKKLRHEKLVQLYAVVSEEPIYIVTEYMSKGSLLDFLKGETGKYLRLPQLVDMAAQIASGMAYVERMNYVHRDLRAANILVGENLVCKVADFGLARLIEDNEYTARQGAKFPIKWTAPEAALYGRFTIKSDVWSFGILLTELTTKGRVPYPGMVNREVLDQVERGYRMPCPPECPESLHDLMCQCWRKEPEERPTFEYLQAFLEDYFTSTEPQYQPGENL

As for `Cc1ncc(C(=O)Nc2ccc(CN3CCN(C)CC3)c(C(F)(F)F)c2)cc1C#Cc1c(N)ncc2ccc(F)cc12` [Compound 7], the “phosphorylation of FLT3” value in the assay with phospho-FLT3 was “Inhibition”. For the same compound, the “cells in the sub-G1 phase” value in assay [1] was “accumulation”. Besides, in assay [1], the “distribution of cells in the S phase” value is reported as “decreases”. In addition, the “population of cells in the G0/G1 phase” value in assay [1] (dose- and time-dependent) is “increase”. Moreover, the IC50 was 12.6 nM on Src (Src 0.6 nM, ATP 100 μM, read-out: IC50 against Src); 3.3 ± 0.3 nM in assay [4]; 0.5 ± 0.01 nM in the assay on MOLM-14 cells; 16.6 ± 5.8 nM in assay [5] (listed as 7 (HSN431)); not above 15 nM in assay [5] (Homo sapiens, MOLM-14, 72 h); 0.5 ± 0.01 nM in the assay with MV4–11 cells [6]. For the same compound, the inhibition at 0.5 µM at Src (inhibitor 500 nM, 100 μM ATP, average of duplicate) was 98%; at FLT3, 97%. In [2], the total apoptosis entry is “induced apoptosis”. The “viable MV4–11 cell count” value in the assay on MV4–11 cells [3] is recorded as “decreased in presence of compound in dose-dependent manner”.

As usually defined, the IC50 is the point on the concentration scale where inhibition reaches its midpoint. In general, inhibition refers to the share of the control response that was lost under treatment. Higher therefore signals a strong effect.
